Experiment [1] has as its system mice exposed to total body irradiation. In words: Survival of mice after total body irradiation. Conditions: for protection from death: vs TEMPO or F14 alone, preliminary data. The experiment is classed as in vivo, mouse. On the procedure:
In FIG. 4A, mice received intraperitoneal injection of 10 mg per kilogram of each of the chemicals indicated, then 24 hours later received 9.75 Gy total body irradiation according to published methods. Mice were followed for survival according to IACUC regulations. […] (P=0.0008). In FIG. 4B, mice received intraperitoneal injection of JP4-039 either 10 minutes before (square symbols) or 4 hours after (triangle symbols) irradiation with 9.75 Gy.
Groups of 15 mice received intraperitoneal injection of 10 mg. per kilogram of each indicated GS-nitroxide compound or carrier (Cremphora plus alcohol at 1 to 1 ratio, then diluted 1 to 10 in distilled water). Mice received 10 mg per kilogram intra-peritoneal injection 24 hours prior to total body irradiation. Control mice received radiation alone. […] (P=0.0005) FIG. 6 is a graph showing that GS-nitroxide JP4-039 is an effective hematopoietic cell radiation mitigator when delivered 24 hr after irradiation. Irradiation survival curves were performed on cells from the 32D cl 3 mouse hematopoietic progenitor cell line, incubated in 10 μM JP4-039 for 1 hour before irradiation, or plated in methylcellulose containing 10 μM […] after irradiation. Cells were irradiated from 0 to 8 Gy, plated in 0.8% methylcellulose containing media, and incubated for 7 days at 37° C. Colonies of greater than 50 cells were counted and data analyzed by linear quadratic and single-hit, multi-target models.
The above methods are based on preliminary data showing that JP4-039 administered via i.p. injection at 10 mg/kg 10 minutes before either […] [FIG. 21A] or 9.15 Gy [FIG. 21B] total-body irradiation protected C57BL/6NHsd female mice from esophagitis-induced death compared to those that received either TEMPO or F14 alone (p=0.0301 and p=0.010, respectively).

Experiment [2] concerns C57BL/6NHsd mice, upper body irradiation. In words: Survival after upper body (thoracic) irradiation, irradiation-induced esophagitis. Conditions: for protection (survival): 4 μg JP4-039 in 110 μl F15 10 minutes before, MnSOD-PL 24 hours prior, preliminary data. The experiment is classed as in vivo, mouse. The source says:
Animals and animal care. C57BL/6HNsd female and C57BL/6JHNsd-GFP male mice (22-22 gm) were housed, five per cage and fed standard laboratory chow according to previous publications (3). C57BL/6NHsd mice (15 per group) were irradiated (details are given in the next section) and received swallowed JP4-039 or MnSOD-PL pre- or post-radiation. The mice were monitored for development of esophagitis.
Irradiation. Mice were irradiated to 28 or 29 Gy to the upper body using a JL Shepherd Mark I cesium irradiator (J.L. Shepherd and Associates, San Fernando, Ca, USA) ([…]), according to published methods (Epperly M W, et al. Zhang X, Nie S, Cao S, Kagan V, Tyurin V and Greenberger J S: MnSOD-plasmid liposome gene therapy effects on ionizing irradiation induced lipid peroxidation of the esophagus. In Vivo 19: 997-1004, 2005). The head and abdomen were shielded, as described previously (Stickle R L, et al. Prevention of irradiation-induced esophagitis by plasmid/liposome delivery of the human manganese superoxide dismutase (MnSOD) transgene. Radiat Oncol Invest Clinical & Basic Res 7: 204-217, 1999), so that only the thoracic cavity received irradiation.
Intraesophageal drug administration. The methods for preparation of MnSOD-plasmid liposomes using PNVL3 lipid have been published previously (Epperly M W, et al. Modulation of radiation-induced cytokine elevation associated with esophagitis and esophageal stricture by manganese superoxide dismutase-plasmid/liposome (MnSOD-PL) gene therapy. Radiat Res 155: 2-14, 2001). Briefly, 100 μl liposomes containing […] plasmid were injected by syringe intraesophageally into non-anesthetized mice immediately after they received 100 μl distilled water.
The stock solutions described above were diluted, so that the total amount of JP4-039 administered to each animal was 400 μg. Mice were immobilized for irradiation with intraperitoneal Nembutal anesthesia after administration of JP4-039 as described above. Mice were exposed to single-dose (29 Gy) or fractionated radiation (11.5 Gy per day for four days) to the upper body.

SMILES strings stand for the structures.

For `CC(C)C[C@@H](/C=C/CC(=O)NC1CC(C)(C)N([O])C(C)(C)C1)NC(=O)OC(C)(C)C` [JP4-039, TEMPO-4-yl-(S,E)-5-(tert-butoxycarbonylamino)-7-methyloct-3-enamide], the protection from death result in experiment [1] (10 mg/kg i.p. 10 minutes before 9/5 Gy total-body irradiation, p=0.0301) is given as “protected”; in experiment [1] (10 mg/kg i.p. 10 minutes before 9.15 Gy total-body irradiation, p=0.010), “protected”. Also, the survival of mice result in experiment [1] (10 mg/kg i.p. 24 hours before 9.75 Gy total body irradiation, vs irradiated control, P=0.0008) is recorded as “significant increase in survival”; in experiment [1] (10 mg/kg i.p. 24 hours prior to 9.5 Gy total body irradiation, P=0.0005), “increases survival”. For the same compound, the survival entry in experiment [2] (400 μg in F15 immediately prior to single fraction 29 Gy thoracic irradiation, vs F15 vehicle only, p=0.0384) was “increased survival”; in experiment [2] (prior to each of four fractions of 11.5 Gy thoracic irradiation, vs F15 only, p=0.0388) it was “increased survival”. For the same compound, the “protection (survival)” value in experiment [2] (29 Gy upper body irradiation, vs F15 or radiation alone) is listed as “protective”; in experiment [2] (four daily sessions of 12 Gy, p=0.0430), “protective”.

The record behind these values is patent US20190210969A1, “INTRAESOPHAGEAL ADMINISTRATION OF TARGETED NITROXIDE AGENTS FOR PROTECTION AGAINST IONIZING IRRADIATION-INDUCED ESOPHAGITIS” (University of Pittsburgh - Of the Commonwealth System of …, priority 2010, published 2019).
